According to patent US20260242419A1, “A CYCLIC PEPTIDE FOR TRAPPING INTERLEUKIN-1 BETA” (Merck Sharp & Dohme LLC, priority 2023, published 2026):
pIC50: −log10 of the molar value. Starred links: 1 amine or outer side, 2 acyl side, 3 side chain; linkers in the order of their positions; H or OH if unused. Non-standard residues stand in square brackets, D forms with d. Residues, ends and D or L forms follow the SMILES beside them. X39 = CNc1ncc(-c2ccc(C[C@H]3CCN([*:1])[C@H]3C(=O)[*:2])cc2)cn1; X1 = COc1ncc(-c2ccc(C[C@H]3CCN([*:1])[C@H]3C(=O)[*:2])cc2)cn1; X22 = Nc1ncc(-c2ccc(C[C@H]3CCN([*:1])[C@H]3C(=O)[*:2])cc2)cn1; X49 = Nc1cnc(-c2ccc(C[C@H]3CCN([*:1])[C@H]3C(=O)[*:2])cc2)cn1; X16 = Cn1cnc(-c2ccc(C[C@H]3CCN([*:1])[C@H]3C(=O)[*:2])cc2)c1; Trp(βS-Me,4-F) = C[C@@H](c1c[nH]c2cccc(F)c12)[C@H](N)C(=O)O; X15 = O=C([C@H]1[C@@H](Cc2ccc(-c3ccnnc3)cc2)CCN1[*:1])[*:2]; X33 = O=C([C@H]1[C@@H](Cc2ccc(-c3ccncc3)cc2)CCN1[*:1])[*:2]; X42 = O=C([C@H]1[C@@H](Cc2ccc(-c3cncnc3)cc2)CCN1[*:1])[*:2]; X48 = O=C([C@H]1[C@@H](Cc2ccc(-c3cccnc3)cc2)CCN1[*:1])[*:2]; Bip(4'-COOH) = N[C@@H](Cc1ccc(-c2ccc(C(=O)O)cc2)cc1)C(=O)O; X18 = Cn1ccnc1-c1ccc(C[C@H]2CCN([*:1])[C@H]2C(=O)[*:2])cc1; X43 = Cc1nocc1-c1ccc(C[C@H]2CCN([*:1])[C@H]2C(=O)[*:2])cc1; X8 = O=C([C@H]1[C@@H](Cc2ccc(-c3ccccn3)cc2)CCN1[*:1])[*:2]; dPro(4R-Bzl(4-F)) = O=C(O)[C@H]1C[C@@H](Cc2ccc(F)cc2)CN1; Ala(pyrimidin-5-yl) = N[C@@H](Cc1cncnc1)C(=O)O; Phe(4-COOH) = N[C@@H](Cc1ccc(C(=O)O)cc1)C(=O)O; Pro(cis-4-F) = O=C(O)[C@@H]1C[C@H](F)CN1; 4Pal = N[C@@H](Cc1ccncc1)C(=O)O; Cit = NC(=O)NCCC[C@H](N)C(=O)O; Dab = NCC[C@H](N)C(=O)O; Aib = CC(C)(N)C(=O)O

target: T1, IL-1β (Homo sapiens, UniProt P01584); assay: IL-6 assay in MRC5 cells: inhibition of IL-1β induced IL-6 secretion (AlphaLISA); format: cell-based; conditions: inhibition of IL-1β induced IL-6 secretion in MRC5 cells; read-out: MRC5 IC50
T1 construct: purchased BioLegend 579404
How it was run: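 Compound was pre-incubated 1 h at ambient temperature with recombinant human IL-1β at 2λ EC80 before adding human lung fibroblast MRC5 cells (3000/well) in EMEM with 0.025% BSA. After overnight culture at 37 °C, 5% CO2, secreted IL-6 in conditioned medium was measured by AlphaLISA; IC50 from 4-parameter logistic fits.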

T1 sequence (P01584 117-269): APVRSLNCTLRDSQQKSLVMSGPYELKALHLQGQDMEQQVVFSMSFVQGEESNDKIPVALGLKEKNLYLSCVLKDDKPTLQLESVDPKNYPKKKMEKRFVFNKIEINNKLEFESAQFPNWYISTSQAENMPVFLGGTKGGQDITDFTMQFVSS

SMILES | pIC50
C[C@@H](c1c[nH]c2cccc(F)c12)[C@@H]1NC(=O)[C@@H]2C[C@H](F)CN2C(=O)CNC(=O)[C@H](Cc2ccc(C(=O)O)cc2)NC(=O)[C@H](Cc2ccncc2)NC(=O)[C@H](Cc2ccc(-c3ccc(C(=O)O)cc3)cc2)NC(=O)[C@H]2C[C@@H](Cc3ccc(F)cc3)CN2C(=O)CNC(=O)[C@H](CCN)NC(=O)[C@H](CCC(N)=O)NC(=O)[C@H](CCCNC(N)=O)NC(=O)C(C)(C)NC(=O)[C@H](Cc2c[nH]c3ccccc23)NC(=O)[C@H](CCC(=O)O)NC(=O)C(C)(C)NC1=O [Example 52] (cyclo([Bip(4'-COOH)][4Pal][Phe(4-COOH)]G[Pro(cis-4-F)][Trp(βS-Me,4-F)][Aib]EW[Aib][Cit]Q[Dab]G[dPro(4R-Bzl(4-F))])) | 10.68
C[C@@H](c1c[nH]c2cccc(F)c12)[C@@H]1NC(=O)[C@@H]2C[C@H](F)CN2C(=O)CNC(=O)[C@H](Cc2ccc(C(=O)O)cc2)NC(=O)[C@H](Cc2ccncc2)NC(=O)[C@H](Cc2ccc(-c3ccc(C(=O)O)cc3)cc2)NC(=O)[C@H]2[C@@H](Cc3ccc(-c4cncnc4)cc3)CCN2C(=O)CNC(=O)[C@H](CCN)NC(=O)[C@H](CCC(N)=O)NC(=O)[C@H](Cc2cncnc2)NC(=O)C(C)(C)NC(=O)[C@H](Cc2c[nH]c3ccccc23)NC(=O)[C@H](CCC(=O)O)NC(=O)C(C)(C)NC1=O [Example 53] (cyclo([Bip(4'-COOH)][4Pal][Phe(4-COOH)]G[Pro(cis-4-F)][Trp(βS-Me,4-F)][Aib]EW[Aib][Ala(pyrimidin-5-yl)]Q[Dab]G[X42])) | 10.74
CNc1ncc(-c2ccc(C[C@H]3CCN4C(=O)CNC(=O)[C@H](CCN)NC(=O)[C@H](CCC(N)=O)NC(=O)[C@H](Cc5cncnc5)NC(=O)C(C)(C)NC(=O)[C@H](Cc5c[nH]c6ccccc56)NC(=O)[C@H](CCC(=O)O)NC(=O)C(C)(C)NC(=O)[C@H]([C@@H](C)c5c[nH]c6cccc(F)c56)NC(=O)[C@@H]5C[C@H](F)CN5C(=O)CNC(=O)[C@H](Cc5ccc(C(=O)O)cc5)NC(=O)[C@H](Cc5ccncc5)NC(=O)[C@H](Cc5ccc(-c6ccc(C(=O)O)cc6)cc5)NC(=O)[C@@H]34)cc2)cn1 [Example 54] (cyclo([Bip(4'-COOH)][4Pal][Phe(4-COOH)]G[Pro(cis-4-F)][Trp(βS-Me,4-F)][Aib]EW[Aib][Ala(pyrimidin-5-yl)]Q[Dab]G[X39])) | 10.68
C[C@@H](c1c[nH]c2cccc(F)c12)[C@@H]1NC(=O)[C@@H]2C[C@H](F)CN2C(=O)CNC(=O)[C@H](Cc2ccc(C(=O)O)cc2)NC(=O)[C@H](Cc2ccncc2)NC(=O)[C@H](Cc2ccc(-c3ccc(C(=O)O)cc3)cc2)NC(=O)[C@H]2[C@@H](Cc3ccc(-c4ccncc4)cc3)CCN2C(=O)CNC(=O)[C@H](CCN)NC(=O)[C@H](CCC(N)=O)NC(=O)[C@H](Cc2cncnc2)NC(=O)C(C)(C)NC(=O)[C@H](Cc2c[nH]c3ccccc23)NC(=O)[C@H](CCC(=O)O)NC(=O)C(C)(C)NC1=O [Example 55] (cyclo([Bip(4'-COOH)][4Pal][Phe(4-COOH)]G[Pro(cis-4-F)][Trp(βS-Me,4-F)][Aib]EW[Aib][Ala(pyrimidin-5-yl)]Q[Dab]G[X33])) | 10.62
C[C@@H](c1c[nH]c2cccc(F)c12)[C@@H]1NC(=O)[C@@H]2C[C@H](F)CN2C(=O)CNC(=O)[C@H](Cc2ccc(C(=O)O)cc2)NC(=O)[C@H](Cc2ccncc2)NC(=O)[C@H](Cc2ccc(-c3ccc(C(=O)O)cc3)cc2)NC(=O)[C@H]2[C@@H](Cc3ccc(-c4cccnc4)cc3)CCN2C(=O)CNC(=O)[C@H](CCN)NC(=O)[C@H](CCC(N)=O)NC(=O)[C@H](Cc2cncnc2)NC(=O)C(C)(C)NC(=O)[C@H](Cc2c[nH]c3ccccc23)NC(=O)[C@H](CCC(=O)O)NC(=O)C(C)(C)NC1=O [Example 56] (cyclo([Bip(4'-COOH)][4Pal][Phe(4-COOH)]G[Pro(cis-4-F)][Trp(βS-Me,4-F)][Aib]EW[Aib][Ala(pyrimidin-5-yl)]Q[Dab]G[X48])) | 10.66
C[C@@H](c1c[nH]c2cccc(F)c12)[C@@H]1NC(=O)[C@@H]2C[C@H](F)CN2C(=O)CNC(=O)[C@H](Cc2ccc(C(=O)O)cc2)NC(=O)[C@H](Cc2ccncc2)NC(=O)[C@H](Cc2ccc(-c3ccc(C(=O)O)cc3)cc2)NC(=O)[C@H]2[C@@H](Cc3ccc(-c4cnc(N)cn4)cc3)CCN2C(=O)CNC(=O)[C@H](CCN)NC(=O)[C@H](CCC(N)=O)NC(=O)[C@H](Cc2cncnc2)NC(=O)C(C)(C)NC(=O)[C@H](Cc2c[nH]c3ccccc23)NC(=O)[C@H](CCC(=O)O)NC(=O)C(C)(C)NC1=O [Example 57] (cyclo([Bip(4'-COOH)][4Pal][Phe(4-COOH)]G[Pro(cis-4-F)][Trp(βS-Me,4-F)][Aib]EW[Aib][Ala(pyrimidin-5-yl)]Q[Dab]G[X49])) | 10.72
C[C@@H](c1c[nH]c2cccc(F)c12)[C@@H]1NC(=O)[C@@H]2C[C@H](F)CN2C(=O)CNC(=O)[C@H](Cc2ccc(C(=O)O)cc2)NC(=O)[C@H](Cc2ccncc2)NC(=O)[C@H](Cc2ccc(-c3ccc(C(=O)O)cc3)cc2)NC(=O)[C@H]2[C@@H](Cc3ccc(-c4ccnnc4)cc3)CCN2C(=O)CNC(=O)[C@H](CCN)NC(=O)[C@H](CCC(N)=O)NC(=O)[C@H](Cc2cncnc2)NC(=O)C(C)(C)NC(=O)[C@H](Cc2c[nH]c3ccccc23)NC(=O)[C@H](CCC(=O)O)NC(=O)C(C)(C)NC1=O [Example 58] (cyclo([Bip(4'-COOH)][4Pal][Phe(4-COOH)]G[Pro(cis-4-F)][Trp(βS-Me,4-F)][Aib]EW[Aib][Ala(pyrimidin-5-yl)]Q[Dab]G[X15])) | 10.43
C[C@@H](c1c[nH]c2cccc(F)c12)[C@@H]1NC(=O)[C@@H]2C[C@H](F)CN2C(=O)CNC(=O)[C@H](Cc2ccc(C(=O)O)cc2)NC(=O)[C@H](Cc2ccncc2)NC(=O)[C@H](Cc2ccc(-c3ccc(C(=O)O)cc3)cc2)NC(=O)[C@H]2[C@@H](Cc3ccc(-c4cnc(N)nc4)cc3)CCN2C(=O)CNC(=O)[C@H](CCN)NC(=O)[C@H](CCC(N)=O)NC(=O)[C@H](Cc2cncnc2)NC(=O)C(C)(C)NC(=O)[C@H](Cc2c[nH]c3ccccc23)NC(=O)[C@H](CCC(=O)O)NC(=O)C(C)(C)NC1=O [Example 59] (cyclo([Bip(4'-COOH)][4Pal][Phe(4-COOH)]G[Pro(cis-4-F)][Trp(βS-Me,4-F)][Aib]EW[Aib][Ala(pyrimidin-5-yl)]Q[Dab]G[X22])) | 10.74
COc1ncc(-c2ccc(C[C@H]3CCN4C(=O)CNC(=O)[C@H](CCN)NC(=O)[C@H](CCC(N)=O)NC(=O)[C@H](Cc5cncnc5)NC(=O)C(C)(C)NC(=O)[C@H](Cc5c[nH]c6ccccc56)NC(=O)[C@H](CCC(=O)O)NC(=O)C(C)(C)NC(=O)[C@H]([C@@H](C)c5c[nH]c6cccc(F)c56)NC(=O)[C@@H]5C[C@H](F)CN5C(=O)CNC(=O)[C@H](Cc5ccc(C(=O)O)cc5)NC(=O)[C@H](Cc5ccncc5)NC(=O)[C@H](Cc5ccc(-c6ccc(C(=O)O)cc6)cc5)NC(=O)[C@@H]34)cc2)cn1 [Example 60] (cyclo([Bip(4'-COOH)][4Pal][Phe(4-COOH)]G[Pro(cis-4-F)][Trp(βS-Me,4-F)][Aib]EW[Aib][Ala(pyrimidin-5-yl)]Q[Dab]G[X1])) | 10.74
C[C@@H](c1c[nH]c2cccc(F)c12)[C@@H]1NC(=O)[C@@H]2C[C@H](F)CN2C(=O)CNC(=O)[C@H](Cc2ccc(C(=O)O)cc2)NC(=O)[C@H](Cc2ccncc2)NC(=O)[C@H](Cc2ccc(-c3ccc(C(=O)O)cc3)cc2)NC(=O)[C@H]2[C@@H](Cc3ccc(-c4ccccn4)cc3)CCN2C(=O)CNC(=O)[C@H](CCN)NC(=O)[C@H](CCC(N)=O)NC(=O)[C@H](Cc2cncnc2)NC(=O)C(C)(C)NC(=O)[C@H](Cc2c[nH]c3ccccc23)NC(=O)[C@H](CCC(=O)O)NC(=O)C(C)(C)NC1=O [Example 61] (cyclo([Bip(4'-COOH)][4Pal][Phe(4-COOH)]G[Pro(cis-4-F)][Trp(βS-Me,4-F)][Aib]EW[Aib][Ala(pyrimidin-5-yl)]Q[Dab]G[X8])) | 10.66
Cc1nocc1-c1ccc(C[C@H]2CCN3C(=O)CNC(=O)[C@H](CCN)NC(=O)[C@H](CCC(N)=O)NC(=O)[C@H](Cc4cncnc4)NC(=O)C(C)(C)NC(=O)[C@H](Cc4c[nH]c5ccccc45)NC(=O)[C@H](CCC(=O)O)NC(=O)C(C)(C)NC(=O)[C@H]([C@@H](C)c4c[nH]c5cccc(F)c45)NC(=O)[C@@H]4C[C@H](F)CN4C(=O)CNC(=O)[C@H](Cc4ccc(C(=O)O)cc4)NC(=O)[C@H](Cc4ccncc4)NC(=O)[C@H](Cc4ccc(-c5ccc(C(=O)O)cc5)cc4)NC(=O)[C@@H]23)cc1 [Example 62] (cyclo([Bip(4'-COOH)][4Pal][Phe(4-COOH)]G[Pro(cis-4-F)][Trp(βS-Me,4-F)][Aib]EW[Aib][Ala(pyrimidin-5-yl)]Q[Dab]G[X43])) | 10.68
C[C@@H](c1c[nH]c2cccc(F)c12)[C@@H]1NC(=O)[C@@H]2C[C@H](F)CN2C(=O)CNC(=O)[C@H](Cc2ccc(C(=O)O)cc2)NC(=O)[C@H](Cc2ccncc2)NC(=O)[C@H](Cc2ccc(-c3ccc(C(=O)O)cc3)cc2)NC(=O)[C@H]2[C@@H](Cc3ccc(-c4nccn4C)cc3)CCN2C(=O)CNC(=O)[C@H](CCN)NC(=O)[C@H](CCC(N)=O)NC(=O)[C@H](Cc2cncnc2)NC(=O)C(C)(C)NC(=O)[C@H](Cc2c[nH]c3ccccc23)NC(=O)[C@H](CCC(=O)O)NC(=O)C(C)(C)NC1=O [Example 63] (cyclo([Bip(4'-COOH)][4Pal][Phe(4-COOH)]G[Pro(cis-4-F)][Trp(βS-Me,4-F)][Aib]EW[Aib][Ala(pyrimidin-5-yl)]Q[Dab]G[X18])) | 10.74
C[C@@H](c1c[nH]c2cccc(F)c12)[C@@H]1NC(=O)[C@@H]2C[C@H](F)CN2C(=O)CNC(=O)[C@H](Cc2ccc(C(=O)O)cc2)NC(=O)[C@H](Cc2ccncc2)NC(=O)[C@H](Cc2ccc(-c3ccc(C(=O)O)cc3)cc2)NC(=O)[C@H]2[C@@H](Cc3ccc(-c4cn(C)cn4)cc3)CCN2C(=O)CNC(=O)[C@H](CCN)NC(=O)[C@H](CCC(N)=O)NC(=O)[C@H](Cc2cncnc2)NC(=O)C(C)(C)NC(=O)[C@H](Cc2c[nH]c3ccccc23)NC(=O)[C@H](CCC(=O)O)NC(=O)C(C)(C)NC1=O [Example 64] (cyclo([Bip(4'-COOH)][4Pal][Phe(4-COOH)]G[Pro(cis-4-F)][Trp(βS-Me,4-F)][Aib]EW[Aib][Ala(pyrimidin-5-yl)]Q[Dab]G[X16])) | 10.85
